According to patent US10159265B2, “Feed composition for reducing ruminant methanogenesis” (priority 2012, dated 2018):
Marks after values point to notes of the source that are not given here.

Experiments:
[1] = test system: Selenomonas ruminantium; assay: qPCR relative quantification of Selenomonas ruminantium; type: cell-based; conditions: 12 hours of incubation
Protocol: (§1) Rumen cannulated calves which received a mixed ration mainly composed of concentrate (90:10) were used as rumen fluid donor; feed composition is presented in Table 1. The inoculum was collected and filtered through two-layer surgical gauze and kept in thermo pots. Flavonoids (Table 2) plus 600 mg of concentrate (Table 1) and 60 mg of barley straw as the substrate were dosed by triplicate in preheated bottles (39° C.) and maintained under anaerobic conditions. Flavonoids isonaringin, neoeritrocin, poncirin were purchased from INDOFINE Chemical Company, Inc (USA). 10 ml of rumen fluid and 40 ml of incubation medium were added to the bottles (McDougall, El (1948) Studies on ruminant saliva. 1. The composition and output of sheep's saliva. Biochem J. 43(1) 99-109). Once the bottles were filled and the anaerobic condition was applied, the bottles were sealed and the incubation process was started in a hot water bath. Pressure readings were made at 2, 4, 6, 8, 12, 24, 36 and 48 hours. Each sample was incubated in triplicate in two sets or batches.
(§2) After 12 hours of incubation, one bottle (replicate) from each treatment was opened, pH was recorded and the bottle was sampled for volatile fatty acids (Jouany, J. P., 1982 Science des Aliments 2, 131-144), lactate (Taylor, K. A. C. C., 1996. Appl. Biochem. Biotechnol. Enzym. Eng. Biotechnol. 56, 49-58) and ammonia (Chaney, A. L., Marbach, E. P., 1962. Clin. Chem. 8, 130-132) analyses.
(§3) The environmental DNA was extracted using the technique proposed by Yu and Morrison (2004). Quantification of Streptococcus bovis, Megasphaera elsdenii and Selenomonas ruminantium DNA was done by qPCR using specific primers (Tajima, K. et al. 2001. Appl. Environ. Microb. 67, 2766-2774; Ouwerkerk, D., et al. 2002. J. Appl. Microbiol. 92, 753-758). Results were statistically analyzed using the PROC MIXED procedure of SAS statistical package (SAS, 2000, User's guide: Statistics, version 8 editions inst., Inc., Cary, N.C.). The least significant difference was used to compare the means. Differences between means in which P<0.05 were accepted as significant.

[2] = test system: ruminal bacteria; assay: Bacterial DNA concentration by qPCR; type: cell-based, calves; conditions: 12 hours of incubation
Protocol: as §1, §2, §3

[3] = test system: Streptococcus bovis; assay: qPCR relative quantification of Streptococcus bovis; type: cell-based; conditions: 12 hours of incubation
Protocol: as §1, §2, §3

[4] = test system: methanogenic (archea) populations; assay: Methane production in "in vitro" rumen fluid culture; type: cell-based, calves; set-up: Average methane production / Accumulated methane production / Methane production / Cumulative methane production: unit not given here; conditions: Exp 1
Text: (§4) Two trials following an identical experimental protocol were designed to study the effect of different pure flavonoids on rumen fermentation using a simulatory “in vitro” system based on the experimental protocol described by Theodorou M K et al. (1994) Animal Feed Science and Technology, 48 (3), p. 185-197; Mauricio, R. M., et al. (1999) Animal Feed Science and Technology 79, 321-330.
as §1, with “Pressure readings were made at 2, 4, 6, 8, 12, 24, 36 and 48 hours.” left out
The effects of flavonoids substances on fermentation activity of certain archea populations which are theoretically responsible for the methane production were analyzed.
The experimental design allows determining whether the effect of flavonoids on methane reduction was derived from a general reduction in microbial activity and biogas production or contrarily flavonoid affects specifically on methanogenic (archea) populations. The presence of flavonoids in the culture medium reduced methane contribution in the total biogas production (P<0.05) although, again, the aforementioned impact was heterogeneous.

[5] = test system: "in vitro" ruminal fluid cultures; assay: Ammonia (N-NH3) concentration in "in vitro" ruminal fluid cultures; type: cell-based, calves; conditions: 72 h
[6] = test system: "in vitro" ruminal fluid cultures; assay: as above; type: cell-based, calves; conditions: for N-NH3 concentration, average (M): average over incubation times
Text: as §4, §1, §2

[7] = test system: "in vitro" ruminal fluid cultures; assay: Volatile fatty acid concentration and molar proportions in "in vitro" ruminal fluid cultures; type: cell-based, calves; conditions: for % Acetate, molar ratio, average (μ) / % Butyrate, molar ratio, average (μ) / % Propionate, molar ratio, average (M) / VFA concentration, average (μ): average over incubation times
Text: as §4, §1
[…] P., 1982 Science des Aliments 2, 131-144), lactate (Taylor, K. A. C. C., 1996. Appl. Biochem. Biotechnol. Enzym. Eng. Biotechnol. 56, 49-58) and ammonia (Chaney, A. L., Marbach, E. P., 1962. Clin. Chem. 8, 130-132) analyses.

[8] = test system: "in vitro" ruminal fluid culture; assay: Lactate concentration in "in vitro" ruminal fluid culture; type: cell-based, calves; conditions: 12 hours of incubation
Text: as §4, §1, §2

[9] = test system: "in vitro" rumen fluid culture; assay: Biogas production in "in vitro" rumen fluid culture (pressure meter); type: cell-based, calves; set-up: Average biogas production / Cumulative biogas production / Biogas production: unit not given here; conditions: Exp 1; for Average biogas production: average over doses and incubation times
Protocol: as §4
Gas production was determined from a semi-automatic pressure meter, the relationship between pressure levels and the produced gas volume was previously calculated.
as §1, with “Pressure readings were made at 2, 4, 6, 8, 12, 24, 36 and 48 hours.” left out

[10] = test system: Megasphaera elsdenii; assay: qPCR relative quantification of Megasphaera elsdenii; type: cell-based; conditions: 12 hours of incubation
Protocol: as §1, §2, §3

[11] = average over doses and incubation times

For `C[C@@H]1O[C@@H](O[C@H]2[C@H](Oc3cc(O)c4c(c3)O[C@H](c3ccc(O)cc3)CC4=O)O[C@H](CO)[C@@H](O)[C@@H]2O)[C@H](O)[C@H](O)[C@H]1O` [Naringin, naringin], the “Relative Quantification 2^(ΔΔCt) S. ruminantium” value [1] was 0.74, the “Bacteria DNA” value [2] was 22.15 ^ab μg/ml and the “Relative Quantification 2^(ΔΔCt) S. bovis” value [3] was 0.48. For the same compound, the Accumulated methane production ([4]; 12 h) was 23.38, the “Proportion of methane in the produced biogas” value (shortened to “Proportion of methane”) ([4]; 12 h) was 12.04 and the Accumulated methane production ([4]; 24 h) was 29.46. The “Proportion of methane” value ([4]; 24 h) was 14.28, the Accumulated methane production ([4]; 48 h) was 34.93 and the “Proportion of methane” value ([4]; 48 h) was 16.14. For the same compound, the Accumulated methane production ([4]; 72 h) was 38.24, the “Proportion of methane” value ([4]; 72 h) was 16.97 and the “Proportion of methane” value [4, 11] was 14.86^b. The Average methane production ([4]; average over doses and incubation times, listed as Naringina) was 31.50^b, the Average methane production ([4]; average over doses and incubation times, listed as naringin) was “not modified” and the Methane production ([4]; dose 1, 0.2 g/kg DM) was 32.28. The “Proportion of methane” value ([4]; dose 1, 0.2 g/kg DM) was 14.87, the Methane production ([4]; dose 2, 0.5 g/kg DM) was 30.73 and the “Proportion of methane” value ([4]; dose 2, 0.5 g/kg DM) was 14.85. It also gave a N-NH3 concentration [5] of 336.25 mg/L, a N-NH3 concentration ([6]; 0 h (initial constant value)) of 149.99 mg/L and a N-NH3 concentration ([6]; 12 h) of 172.47 mg/L. For the same compound, the “N-NH3 concentration, average (M)” value [6] was 219.57 mg/L, the “% Acetate, molar ratio” value ([7]; 0 h) was 62.51 mol/100 mol and the “% Butyrate, molar ratio” value ([7]; 0 h) was 9.07 mol/100 mol. For the same compound, the “% Propionate, molar ratio” value ([7]; 0 h) was 20.03 mol/100 mol, the “A/P rate (acetate/propionate)” value ([7]; 0 h) was 3.12 and the VFA concentration ([7]; 0 h (initial constant value)) was 13.78 mmol/L. The “% Acetate, molar ratio” value ([7]; 12 h) was 53.70 mol/100 mol, the “% Butyrate, molar ratio” value ([7]; 12 h) was 10.47 mol/100 mol and the “% Propionate, molar ratio” value ([7]; 12 h) was 30.00 mol/100 mol. The “A/P rate (acetate/propionate)” value ([7]; 12 h) was 1.79, the VFA concentration ([7]; 12 h) was 35.23 mmol/L and the “% Acetate, molar ratio” value ([7]; 72 h) was 55.34 mol/100 mol. For the same compound, the “% Butyrate, molar ratio” value ([7]; 72 h) was 10.33 mol/100 mol, the “% Propionate, molar ratio” value ([7]; 72 h) was 26.75 mol/100 mol and the “A/P rate (acetate/propionate)” value ([7]; 72 h) was 2.07. The VFA concentration ([7]; 72 h) was 51.03 mmol/L, the “% Acetate, molar ratio, average (μ)” value [7] was 57.18 mol/100 mol and the “% Butyrate, molar ratio, average (μ)” value [7] was 9.96 ^ab mol/100 mol. The “% Propionate, molar ratio, average (M)” value [7] was 25.59 ^b mol/100 mol, the “VFA concentration, average (μ)” value [7] was 33.35 mmol/L and the “% Propionate, molar ratio, average (M)” value ([7]; listed as naringin) was “improved”. The Lactate [8] was 77.8 mg/L, the Cumulative biogas production ([9]; 12 h incubation) was 193.90 and the Cumulative biogas production ([9]; 24 h incubation) was 236.91. The Cumulative biogas production ([9]; 48 h incubation) was 270.98, the Cumulative biogas production ([9]; 72 h incubation) was 290.91 and the Average biogas production [9] was 248.17^bc. The Average biogas production ([9]; listed as naringin) was “did not change”, the Biogas production ([9]; dose 1, 0.2 g/kg DM) was 251.15 and the Biogas production ([9]; dose 2, 0.5 g/kg DM) was 245.19. The “Relative Quantification 2^(ΔΔCt) M. elsdenii” value [10] was 1.26 ^c.
In the case of `COc1ccc([C@@H]2CC(=O)c3c(O)cc(O[C@@H]4O[C@H](CO)[C@@H](O)[C@H](O)[C@H]4O[C@@H]4O[C@@H](C)[C@H](O)[C@@H](O)[C@H]4O)cc3O2)cc1` [Poncirin, poncirin], the “Relative Quantification 2^(ΔΔCt) S. ruminantium” value [1] is reported as 0.68, the “Bacteria DNA” value [2] is reported as 10.12 ^a μg/ml and the “Relative Quantification 2^(ΔΔCt) S. bovis” value [3] is reported as 0.44. The Accumulated methane production ([4]; 12 h) was 19.19, the “Proportion of methane” value ([4]; 12 h) was 10.62 and the Accumulated methane production ([4]; 24 h) was 24.43. For the same compound, the “Proportion of methane” value ([4]; 24 h) was 11.94, the Accumulated methane production ([4]; 48 h) was 30.50 and the “Proportion of methane” value ([4]; 48 h) was 16.54. For the same compound, the Accumulated methane production ([4]; 72 h) was 34.07, the “Proportion of methane” value ([4]; 72 h) was 16.34 and the Average methane production [4, 11] was 27.04^de. For the same compound, the “Proportion of methane” value [4, 11] was 13.86^cd, the Average methane production ([4]; average over doses and incubation times, listed as poncirin) was “decreased” and the Methane production ([4]; dose 1, 0.2 g/kg DM) was 26.61. The “Proportion of methane” value ([4]; dose 1, 0.2 g/kg DM) was 13.92, the Methane production ([4]; dose 2, 0.5 g/kg DM) was 27.47 and the “Proportion of methane” value ([4]; dose 2, 0.5 g/kg DM) was 13.80. The N-NH3 concentration [5] was 318.15 mg/L, the N-NH3 concentration ([6]; 0 h (initial constant value)) was 149.99 mg/L and the N-NH3 concentration ([6]; 12 h) was 159.33 mg/L. The “N-NH3 concentration, average (M)” value [6] was 209.16 mg/L, the “% Acetate, molar ratio” value ([7]; 0 h) was 62.51 mol/100 mol and the “% Butyrate, molar ratio” value ([7]; 0 h) was 9.07 mol/100 mol. The “% Propionate, molar ratio” value ([7]; 0 h) was 20.03 mol/100 mol, the “A/P rate (acetate/propionate)” value ([7]; 0 h) was 3.12 and the VFA concentration ([7]; 0 h (initial constant value)) was 13.78 mmol/L. For the same compound, the “% Acetate, molar ratio” value ([7]; 12 h) was 55.44 mol/100 mol, the “% Butyrate, molar ratio” value ([7]; 12 h) was 9.61 mol/100 mol and the “% Propionate, molar ratio” value ([7]; 12 h) was 29.52 mol/100 mol. For the same compound, the “A/P rate (acetate/propionate)” value ([7]; 12 h) was 1.88, the VFA concentration ([7]; 12 h) was 36.98 mmol/L and the “% Acetate, molar ratio” value ([7]; 72 h) was 55.36 mol/100 mol. The “% Butyrate, molar ratio” value ([7]; 72 h) was 10.20 mol/100 mol, the “% Propionate, molar ratio” value ([7]; 72 h) was 26.96 mol/100 mol and the “A/P rate (acetate/propionate)” value ([7]; 72 h) was 2.05. For the same compound, the VFA concentration ([7]; 72 h) was 51.87 mmol/L, the “% Acetate, molar ratio, average (μ)” value [7] was 57.77 mol/100 mol and the “% Butyrate, molar ratio, average (μ)” value [7] was 9.63 ^a mol/100 mol. The “% Propionate, molar ratio, average (M)” value [7] was 25.51 ^b mol/100 mol, the “VFA concentration, average (μ)” value [7] was 34.21 mmol/L and the “% Propionate, molar ratio, average (M)” value ([7]; listed as poncirin) was “improved”. It also gave a Lactate [8] of 87.5 mg/L, a Cumulative biogas production ([9]; 12 h incubation) of 180.63 and a Cumulative biogas production ([9]; 24 h incubation) of 224.90. The Cumulative biogas production ([9]; 48 h incubation) was 262.00, the Cumulative biogas production ([9]; 72 h incubation) was 284.28 and the Average biogas production [9] was 237.95^cde. For the same compound, the Average biogas production ([9]; listed as poncirin) was 238, the Biogas production ([9]; dose 1, 0.2 g/kg DM) was 234.43 and the Biogas production ([9]; dose 2, 0.5 g/kg DM) was 241.48. The “Relative Quantification 2^(ΔΔCt) M. elsdenii” value [10] was 0.98 ^ab.
